{"source": "paper PMC2816717", "about": "“Active Fragments from Pro- and Antiapoptotic BCL-2 Proteins Have Distinct Membrane Behavior Reflecting Their Functional Divergence” (PLoS ONE, 2010)", "key": {"[1]": {"assay": "Langmuir monolayer penetration assay at constant area", "type": "physicochemical", "settings": "POPC/DOPE/CL", "text": "For the biophysical characterization of membrane active protein fragments, we have used Langmuir monolayers as in vitro model of lipid membranes. These supramolecular lipid films formed at the air-water interface are attractive membrane models, widely used for studying peptide-lipid interactions, [56], [57]. We have investigated the binding of peptides derived from the central helices of BAX, BCL-xL and BID at physiological pH with model phospholipid monolayers of a composition that imitates mitochondrial membranes. For this purpose we selected fragments encompassing the sequences corresponding to the first or second α-helices of the core hairpins of BAX, BCL-xL and BID, as defined in the water-soluble protein structures, [17], [19]. Because the structures of those proteins in a membrane environment is currently unavailable, for the case of the first hairpin helix of BAX and BCL-xL (α5) we analyzed both a short version (labeled “S”), including only the reported α-helical residues, and a long version (labeled “L”) that extends a few residues beyond the α-helix stretch at both ends. Divergence of the BID sequence precluded unambiguous alignment with the other two proteins and a similar peptide design. Peptides corresponding to the BH3 domain of BAX, BCL-xL and BID were also included in the study. The sequence and some general properties of the peptides analyzed in this study are described in Table 1 and Figure 1). Lipid mixtures of POPC/DOPE (2∶1) and POPC/DOPE/CL (1∶1∶1) were chosen to mimic the MOM and the contact sites between inner and outer mitochondrial membrane (MIM/MOM), respectively. Penetration assays were carried out at constant area by spreading the lipids at the air-buffer interface, compressing the film at πi = […] and then injecting the peptides into the subphase at a concentration of 0.2 µM (see Material and Methods). Subsequent peptide binding results typically in an increase of surface pressure. Thus, the peptide-monolayer interaction can be characterized by measurable kinetic properties, such as the initial velocity of surface pressure increase (Vi), which informs about the affinity of the peptide for the lipid-water interface, and the final increase of surface pressure (πmax), which can be related to the insertion ability of the peptide into the monolayer.\nMonolayer experiments were performed on a computer-controlled Langmuir film balance (KSV 2000, three multi-compartment system, KSV Instrument Ltd., Finland) working in a symmetrical compression mode and enclosed in an opaque cabinet. The rectangular trough (V = 85 mL ±1 mL, S = 119.25 cm^2) was made of Teflon and the mobile barriers were made in Delrin. The surface pressure, π defined as γ0 – γ, where γ0 is the surface tension of the pure aqueous subphase and γ the surface tension exerted by phospholipids at the subphase surface, was measured by the Wilhelmy's method using a platinum plate with an accuracy of ±0.05 mN/m. The trough was filled with Hepes buffer (pH 7.4), used as subphase and thermostated with a water circulating bath (Lauda E100, LAUDA France, SARL). In all experiments, the subphase temperature was maintained at a constant value of 22.5±0.5°C.\nPhospholipid monolayers were formed by deposition of 14 µl of spreading solutions at a clean air/buffer interface by means of a micropipette to reach a final amount of 14 nmol of phospholipids. After complete evaporation of the solvent (∼15 min), the monolayer was slowly compressed up to a defined lateral pressure (initial surface pressure πi) at a rate of 0.045 nm^2 molecule^−1 min^−1. The value of πi = 5 mN/m was chosen because it lies between the surface pressure set-off and surface pressures (e.g. 30 mN/m, which corresponds to a tightly packed film) where many peptides of the study will not insert. […]"}, "[2]": {"assay": "Surface pressure change after peptide injection without lipid monolayer", "type": "physicochemical", "settings": "peptide 0.2 µM injected into pure subphase, Hepes buffer pH 7.4, 22.5°C; defined as threshold for significant variation", "protocol": "A number of control experiments were carried out in order to characterize the peptide-lipid monolayer interactions at the air-buffer interface. First, we determined surface pressure-time isotherms of Bax-α5S, a strongly amphipathic and hydrophobic peptide (Table 1), in presence or absence of lipids (POPC/DOPE/CL, see Figure 2). When the peptide was injected into a pure subphase without any lipid monolayer, the corresponding surface pressure change was Δπ = 4.8 mN/m (this value was subsequently defined as a threshold level for significant surface pressure variation). When the same injection was repeated but this time using a lipid monolayer over the aqueous subphase, at an initial surface pressure of 5 mN/m, the surface pressure rose up to Δπ = 32.1 mN/m (Figure 2). […] Then, we measured compression–decompression–recompression isotherms in presence of the peptide. […] After stabilization, the peptide was injected underneath the monolayer, πmax was recorded (32.1 mN/m) and the monolayer was decompressed.\nFigure 2 Surface pressure-time isotherms for BAX-α5S with (bold line) or without (light line) POPC/DOPE/CL lipids. […] The initial velocity of surface pressure increase (Vi) was calculated as the slope of the curve (Δπ/Δt) at the time of peptide addition. […]"}}}
{"sequence": "WGRVVALFYFASKLVLKALSTK [BAX-α5S, short peptide of the first helix (α5) of the central hairpin of BAX]", "values": [{"measurement": "surface pressure increase (Δπ) with lipid monolayer", "setting": "[1]; initial surface pressure 5 mN/m, peptide 0.2 µM in subphase, Hepes pH 7.4, 22.5°C, constant area", "result": 32.1, "unit": "mN/m"}, {"measurement": "πmax (plateau surface pressure after peptide injection)", "setting": "[1]; πi = 5 mN/m, peptide injected underneath monolayer, compression-decompression experiment", "result": 32.1, "unit": "mN/m"}, {"measurement": "exclusion pressure (πex)", "setting": "[1]; extrapolation of linear Δπ versus πi plot to Δπ = 0", "result": 33, "unit": "mN/m"}, {"measurement": "surface pressure change (Δπ) without lipid monolayer", "setting": "[2]", "result": 4.8, "unit": "mN/m"}]}
